Test results as given in patent US20120115845A1, “THERAPEUTIC AGENTS” (priority 2007, published 2012).

Columns and labels:
human GHS receptor [1] = target: T1, human GHS receptor (Homo sapiens, UniProt Q92847); assay: h bind IC50 (binding assay, Table 1); conditions: human receptor; Table 1
human GHS receptor [2] = target: T1, human GHS receptor; assay: Ghrelin IP1 agonist assay (IP1 HTRF); type: cell-based; parameters: expressed in transfected cells; host or cells: HEK293s; conditions: for Emax: 2 h, agonist effect as % maximal effect of GHRP-6 (5 μM), read-out: h IP1 ag %; for EC50: HEK293s cells stably expressing human GHS receptor, 2 hours at 37° C., read-out: h IP1 ag EC50
Procedure, shortened: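 Cells: HEK293s stably expressing human GHS receptor, in stimulation buffer containing 0.02% fatty acid free BSA.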

T1 sequence (Q92847 whole entry): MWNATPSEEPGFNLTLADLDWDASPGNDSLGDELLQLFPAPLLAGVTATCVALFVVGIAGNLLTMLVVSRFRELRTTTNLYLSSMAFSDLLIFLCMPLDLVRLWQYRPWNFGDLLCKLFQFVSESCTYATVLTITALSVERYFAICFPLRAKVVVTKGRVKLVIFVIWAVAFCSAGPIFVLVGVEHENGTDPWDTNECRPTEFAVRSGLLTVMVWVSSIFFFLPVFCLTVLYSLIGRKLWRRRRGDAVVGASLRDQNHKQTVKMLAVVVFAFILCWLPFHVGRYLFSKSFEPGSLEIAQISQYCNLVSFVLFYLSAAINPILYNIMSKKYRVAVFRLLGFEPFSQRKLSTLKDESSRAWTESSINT

| Compound | IC50 (human GHS receptor [1]) [nM] | Emax (human GHS receptor [2]) [%] | EC50 (human GHS receptor [2]) [nM] |
| --- | --- | --- | --- |
| CC(C)(C)OC(=O)N1CCN(CCCS(=O)(=O)c2ccc3nc(NC(=O)NC(=O)c4ccccc4Cl)sc3c2)CC1 [Example 205, tert-Butyl 4-[3-[2-[(2-chlorobenzoyl)carbamoylamino]benzothiazol-6-yl]sulfonylpropyl]piperazine-1-carboxylate] | 5.3 | 39.5 | 2 |
| O=C(NC(=O)c1ccccc1Cl)Nc1nc2ccc(S(=O)(=O)CCCN3CCNCC3)cc2s1 [Example 206, 2-Chloro-N-[[6-(3-piperazin-1-ylpropylsulfonyl)benzothiazol-2-yl]carbamoyl]benzamide] | 14.4 | 69 | 9.58 |
| CS(=O)(=O)N1CCN(CCCS(=O)(=O)c2ccc3nc(NC(=O)NC(=O)c4ccccc4Cl)sc3c2)CC1 [Example 208, 2-Chloro-N-[[6-[3-(4-methylsulfonylpiperazin-1-yl)propylsulfonyl]benzothiazol-2-yl]carbamoyl]benzamide] | 18.1 | 30.7 | 13.5 |
| CC1CN(CCCS(=O)(=O)c2ccc3nc(NC(=O)NC(=O)c4ccccc4Cl)sc3c2)CCN1 (stereo not drawn) [Example 209, 2-Chloro-N-[[6-[3-(3-methylpiperazin-1-yl)propylsulfonyl]benzothiazol-2-yl]carbamoyl]benzamide] | 12.4 | 42.2 | 15.4 |
| CN1CCN(CCCCS(=O)(=O)c2ccc3nc(NC(=O)NC(=O)c4ccccc4Cl)sc3c2)CC1 [Example 210, 2-Chloro-N-[[6-[4-(4-methylpiperazin-1-yl)butylsulfonyl]benzothiazol-2-yl]carbamoyl]benzamide] | 2.2 | 51.5 | 2.26 |
| CCN(CC)CCCCS(=O)(=O)c1ccc2nc(NC(=O)NC(=O)c3ccccc3Cl)sc2c1 [Example 211, 2-Chloro-N-[[6-(4-diethylaminobutylsulfonyl)benzothiazol-2-yl]carbamoyl]benzamide] | 53.6 | 27.7 | 9.58 |
| Cc1ccn(-c2ccc(C(=O)NC(=O)Nc3nc4ccc(S(=O)(=O)CCCN5CCN(C)CC5)cc4s3)c(Cl)c2)n1 [Example 212, 2-Chloro-N-[[6-[3-(4-methylpiperazin-1-yl)propylsulfonyl]benzothiazol-2-yl]carbamoyl]-4-(3-methylpyrazol-1-yl)benzamide] | 0.5 | 27.6 | 2.03 |
| CC(C)(C)OC(=O)NC1CC(S(=O)(=O)c2ccc3nc(NC(=O)NC(=O)c4ccccc4Cl)sc3c2)C1 (stereo not drawn) [Example 213, tert-Butyl N-[3-[2-[(2-chlorobenzoyl)carbamoylamino]benzothiazol-6-yl]sulfonylcyclobutyl]carbamate] | 238 | 12.9 | 12.5 |
| NC1CC(S(=O)(=O)c2ccc3nc(NC(=O)NC(=O)c4ccccc4Cl)sc3c2)C1 (stereo not drawn) [Example 214, N-[[6-(3-Aminocyclobutyl)sulfonylbenzothiazol-2-yl]carbamoyl]-2-chloro-benzamide] | 32.6 | 52.1 | 12.4 |
| CNC1CC(S(=O)(=O)c2ccc3nc(NC(=O)NC(=O)c4ccccc4Cl)sc3c2)C1 (stereo not drawn) [Example 215, 2-Chloro-N-[[6-(3-methylaminocyclobutyl)sulfonylbenzothiazol-2-yl]carbamoyl]benzamide] | 27.2 | 50.2 | 23 |
| CN(C)C1CC(S(=O)(=O)c2ccc3nc(NC(=O)NC(=O)c4ccccc4Cl)sc3c2)C1 (stereo not drawn) [Example 216, 2-Chloro-N-[[6-(3-dimethylaminocyclobutyl)sulfonylbenzothiazol-2-yl]carbamoyl]benzamide] | 36.8 | 64.6 | 54 |
| CC(C)(C)OC(=O)N1CCC(CS(=O)(=O)c2ccc3nc(NC(=O)NC(=O)c4ccccc4Cl)sc3c2)CC1 [Example 217, tert-Butyl 4-[[2-[(2-chlorobenzoyl)carbamoylamino]benzothiazol-6-yl]sulfonylmethyl]piperidine-1-carboxylate] | 70.4 | 36.9 | 118 |
| CC(C)(C)OC(=O)N1CCC(CCS(=O)(=O)c2ccc3nc(NC(=O)NC(=O)c4ccccc4Cl)sc3c2)CC1 [Example 218, tert-Butyl 4-[2-[2-[(2-chlorobenzoyl)carbamoylamino]benzothiazol-6-yl]sulfonylethyl]piperidine-1-carboxylate] | 22.3 | 39.2 | 18.5 |
| O=C(NC(=O)c1ccccc1Cl)Nc1nc2ccc(S(=O)(=O)CC3CCNCC3)cc2s1 [Example 219, 2-Chloro-N-[[6-(4-piperidylmethylsulfonyl)benzothiazol-2-yl]carbamoyl]benzamide] | 17.8 | 64.5 | 29.3 |
| C#Cc1ccc(Cl)c(C(=O)NC(=O)Nc2nc3ccc(S(=O)(=O)CCCN4CCN(C)CC4)cc3s2)c1 [Example 220, 2-Chloro-5-ethynyl-N-[[6-[3-(4-methylpiperazin-1-yl)propylsulfonyl]benzothiazol-2-yl]carbamoyl]benzamide] | 2.8 | 21.4 | 4.01 |
| O=C(NC(=O)c1ccccc1Cl)Nc1nc2ccc(S(=O)(=O)CCC3CCNCC3)cc2s1 [Example 221, 2-Chloro-N-[[6-[2-(4-piperidyl)ethylsulfonyl]benzothiazol-2-yl]carbamoyl]benzamide] | 15.4 | 65 | 18.7 |
| COCCNC1CC(S(=O)(=O)c2ccc3nc(NC(=O)NC(=O)c4ccccc4Cl)sc3c2)C1 (stereo not drawn) [Example 222, 2-Chloro-N-[[6-[3-(2-methoxyethylamino)cyclobutyl]sulfonylbenzothiazol-2-yl]carbamoyl]benzamide] | 18.6 | 58.2 | 43 |
| CC(=O)NC1CC(S(=O)(=O)c2ccc3nc(NC(=O)NC(=O)c4ccccc4Cl)sc3c2)C1 (stereo not drawn) [Example 223, N-[[6-(3-Acetamidocyclobutyl)sulfonylbenzothiazol-2-yl]carbamoyl]-2-chlorobenzamide] | 95.8 | 24.8 | 62.1 |
| CC(C)NS(=O)(=O)c1ccc2nc(NC(=O)NC(=O)c3ccccc3Cl)sc2c1 [Example 224, 2-chloro-N-[[6-(isopropylsulfamoyl)-1,3-benzothiazol-2-yl]carbamoyl]benzamide] | 87.8 | 24.3 | 139 |
| CC(C)NCC(C)(C)S(=O)(=O)c1ccc2nc(NC(=O)NC(=O)c3ccccc3Cl)sc2c1 [Example 225, 2-chloro-N-(6-(1-(isopropylamino)-2-methylpropan-2-ylsulfonyl)benzo[d]thiazol-2-ylcarbamoyl)benzamide] | 60.3 | 27.8 | 224 |
| CCc1ccc(Cl)c(C(=O)NC(=O)Nc2nc3ccc(S(=O)(=O)CCCN4CCN(C)CC4)cc3s2)c1 [Example 226, 2-chloro-5-ethyl-N-(6-(3-(4-methylpiperazin-1-yl)propylsulfonyl)-benzo[d]thiazol-2-ylcarbamoyl)benzamide] | 0.05 | 22.3 | 2.19 |
| CC(=O)N1CCC(Oc2ccc(Cl)c(C(=O)NC(=O)Nc3nc4ccc(S(C)(=O)=O)cc4s3)c2)C1 (stereo not drawn) [Example 227, 5-(1-acetylpyrrolidin-3-yloxy)-2-chloro-N-(6-(methylsulfonyl)benzo[d]thiazol-2-ylcarbamoyl)benzamide] | 3790 | 10.6 | ≥ 20000 |
| CC(C)N1CCC[C@H](COc2ccc(Cl)c(C(=O)NC(=O)Nc3nc4ccc(S(C)(=O)=O)cc4s3)c2)C1 [Example 228, (S)-2-chloro-5-((1-isopropylpiperidin-3-yl)methoxy)-N-(6-(methylsulfonyl)benzo[d]thiazol-2-ylcarbamoyl)benzamide] | 1240 | 9.89 | 1370 |
| NS(=O)(=O)c1ccc2nc(NC(=O)NC(=O)c3ccccc3Cl)sc2c1 [Example 229, 2-chloro-N-[(6-sulfamoyl-1,3-benzothiazol-2-yl)carbamoyl] benzamide] | 1970 | 18.2 | 117 |
| CNS(=O)(=O)c1ccc2nc(NC(=O)NC(=O)c3ccccc3Cl)sc2c1 [Example 230, 2-chloro-N-[[6-(methylsulfamoyl)-1,3-benzothiazol-2-yl]carbamoyl] benzamide] | 19.3 | 12.6 | 46.5 |
| O=C(NC(=O)c1ccccc1Cl)Nc1nc2ccc(S(=O)(=O)NCCO)cc2s1 [Example 231, 2-chloro-N-[[6-(2-hydroxyethyl-sulfamoyl)-1,3-benzothiazol-2-yl]carbamoyl] benzamide] | 67.3 | 15.7 | 72.1 |
| CN(C)S(=O)(=O)c1ccc2nc(NC(=O)NC(=O)c3ccccc3Cl)sc2c1 [Example 232, 2-chloro-N-[[6-(dimethylsulfamoyl)-1,3-benzothiazol-2-yl]carbamoyl] benzamide] | 31.4 | 12.6 | 56.1 |
| CN(C)[C@@H]1CCN(c2ccc(Cl)c(C(=O)NC(=O)Nc3nc4ccc(S(C)(=O)=O)cc4s3)c2)C1 [Example 233, (R)-2-chloro-5-(3-(dimethylamino)pyrrolidin-1-yl)-N-(6-(methylsulfonyl)benzo[d]thiazol-2-ylcarbamoyl) benzamide] | 39.1 | 10.4 | ≥ 20000 |
| CC(C)(C)OC(=O)N1CCN(c2ccc(Cl)c(C(=O)NC(=O)Nc3nc4ccc(S(C)(=O)=O)cc4s3)c2)CC1 [Example 234, tert-butyl 4-(4-chloro-3-(6-(methylsulfonyl)benzo[d]thiazol-2-ylcarbamoyl-carbamoyl)phenyl) piperazine-1-carboxylate] | 3.82 | 6.73 | ≥ 20000 |
